Converted amounts (≈) assume the structure as drawn.
Experiments:
[1] = test system: L. donovani intracellular amastigotes infecting THP-1 macrophages; experiment: GSK intramacrophage L. donovani assay (LD AMMAC, inMac; Assay Conditions C); format: cell-based; conditions: Leishmania donovani; for IC50: THP-1; for EC50: growth inhibition of L. donovani intracellular amastigotes infecting THP-1 macrophages, read-out: LD AMMAC EC50
How it was run: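 EC50 values come from counting amastigotes per infected THP-1 macrophage (AMMAC). Parallel read-outs give percentage of infected cells per well (INFCELL) and a macrophage-number toxicity EC50 (MAC).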

[2] = test system: host THP-1 macrophages; experiment: GSK inMac assay, host cell toxicity readout (LD MAC); format: cell-based, human; conditions: Homo sapiens, THP-1, cytotoxicity against host THP-1 macrophages
How it was run: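 MAC EC50 reflects THP-1 host cell counts, measured within GSK's inMac L. donovani infection assay that also scores intracellular amastigotes and infected-cell percentage.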

[3] = test system: HepG2 cells; experiment: HepG2 cytotoxicity; format: cell-based; conditions: Homo sapiens; toxicity against HepG2 cells
Protocol: Given the literature precedents described above and the apparent narrow tolerance for R^3 substitutions observed in the primary screen compounds, a thorough and methodical assessment was undertaken of tolerated groups at the three points of diversity (R^1/R^2/R^3) for the core. At this stage of the project, all analogues were assessed using a battery of assays performed in-house at GlaxoSmithKline. For antileishmanial activity, GSK's inMac assay was utilized. This assay provides two readouts of compound potency: average number of intracellular amastigotes per infected cell (AMMAC) EC50, percentage of infected cells per well (INFCELL) EC50, as well as a toxicity output derived from the number of host cells (MAC EC50). In addition, compounds were assessed for toxicity against HepG2 cells (HEPG2 EC50). Here, AMMAC EC50 values were focused on for relative potency assessments. […] It should be noted that for all compounds assessed in this project, the measured toxicity against THP-1 macrophages either equaled or exceeded that of HepG2 hepatocytes, therefore the MAC SI is used here as the more conservative estimate of therapeutic index.

[4] = test system: L. donovani intracellular amastigotes in B10R cells; experiment: UCSD L. donovani infection assay (Assay Conditions D); format: cell-based; conditions: Leishmania donovani
How it was run: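 Compounds, either single-point at 10 μM or 10-point 2-fold series (3 technical, 2 biological replicates), were incubated 72 h at 37° C. with B10R host cells co-seeded with day-7 stationary L. donovani promastigotes (20:1). DAPI-stained nuclei imaging yielded intracellular parasite EC50 and host-cell CC50.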

[5] = Kinetic aqueous solubility by CLND; format: physicochemical; conditions: kinetic from dmso stock, high-throughput CLND
Protocol: Solubility of compounds using ChemiLuminescent Nitrogen Detection (CLND) was measured as described. Solubility of compounds using Charged Aerosol Detection (CAD) was measured as described. Solubility of solid compounds in Fasted Simulated Intestinal Fluid (FaSSIF) was measured as described.

[6] = Artificial membrane permeability (AMP); format: in vitro ADME; conditions: PAMPA, pH 7.4
Protocol: Passive permeability of compounds via rate of permeation through an artificial phospholipid membrane at pH 7.4 was measured in a high-throughput format, in duplicate. A solution of 1.8% phosphatidylcholine in 1% decane was added to a 96-well Millicell filter plate along with 250 μL of 50 mM phosphate buffer, pH 7.4 on the donor side, and 100 μL of the same buffer solution on the receiver side. The assay plate was shaken for 45 minutes before adding test compounds. Test compounds were then added to the filter plate and then incubated at room temperature with shaking for three hours. The donor and receiver solutions were next transferred to a 384-well plate for analysis by LC/MS.

[7] = biological target: human serum albumin (Homo sapiens, UniProt P02768); experiment: Human serum albumin (HSA) binding, chromatographic; format: in vitro ADME
Protocol: The percentage of compound bound to human serum albumin was measured using a chromatographic method as described. Briefly, each compound was assayed on an immobilized HSA column and gradient retention times measured, with chromatographic peak detection by UV. Each retention time was then converted to a % HSA bound value using a calibration set of compounds with a known % HSA binding.

[8] = Property forecast index (PFI = ChromLogD7.4 + aromatic rings); format: physicochemical
[9] = aqueous medium (not further specified)
[10] = aqueous (not further specified)

human serum albumin, sequence (P02768 25-609): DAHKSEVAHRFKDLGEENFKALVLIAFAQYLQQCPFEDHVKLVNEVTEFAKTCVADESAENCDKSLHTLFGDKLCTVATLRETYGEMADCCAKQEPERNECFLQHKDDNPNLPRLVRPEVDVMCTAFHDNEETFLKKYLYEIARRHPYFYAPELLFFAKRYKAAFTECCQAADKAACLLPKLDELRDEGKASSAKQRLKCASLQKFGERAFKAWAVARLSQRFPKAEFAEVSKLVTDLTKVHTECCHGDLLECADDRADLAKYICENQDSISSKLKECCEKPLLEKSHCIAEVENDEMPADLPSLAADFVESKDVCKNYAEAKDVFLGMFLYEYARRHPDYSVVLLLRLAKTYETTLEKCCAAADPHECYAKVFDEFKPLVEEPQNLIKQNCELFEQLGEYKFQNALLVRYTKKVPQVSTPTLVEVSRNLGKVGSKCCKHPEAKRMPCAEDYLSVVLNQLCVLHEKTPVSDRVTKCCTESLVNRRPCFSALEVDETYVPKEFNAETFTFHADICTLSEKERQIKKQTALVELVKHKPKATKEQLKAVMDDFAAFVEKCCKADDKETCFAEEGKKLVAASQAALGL

EC50 [1] [µM]	solubility [5, 9] [µM]	Papp at 3 h [6] [×10⁻⁶ cm/s]	HSA Binding [7] [%]	PFI [8]	solubility [5, 10] [µM]	solubility [5] [µM]	Compound	IC50 [1] [µM]	EC50 [2] [µM]	EC50 [3] [µM]	IC50 [4] [µM]	solubility ([5]; aqueous medium) [µM]
15.8	≥ 433	23	76.7	5.3	–	–	CC(C)Cc1n[nH]c2c1C(c1ccc(F)cc1)N(CCN1CCCC1)C2=O (stereo not drawn) [Compound 39]	15.9	> 50	> 100	10.4	–
1	–	16	96.1	9.0	33 (≈ 13 µg/mL)	–	CC(C)Cc1n[nH]c2c1C(c1ccc(F)cc1)N(c1ccc(N(C)C)cc1)C2=O (stereo not drawn) [Compound 21, 5-(4-(dimethylamino)phenyl)-4-(4-fluorophenyl)-3-isobutyl-4,5-dihydropyrrolo[3,4-c]pyrazol-6(1H)-one]	1	39.8	50.1	0.2	–
3.2	–	51	96.2	8.4	–	–	CC(C)Cc1n[nH]c2c1C(c1ccc(F)cc1)N(c1ccc3c(c1)OCCO3)C2=O (stereo not drawn) [Compound 45]	3.2	25.1	> 50	0.9	50 (≈ 20.4 µg/mL)
1.3	–	32	97.9	9.7	9 (≈ 3.85 µg/mL)	–	CC(C)Cc1n[nH]c2c1C(c1ccc(F)cc1)N(c1ccc(Br)cc1)C2=O (stereo not drawn) [Compound 24, 5-(4-bromophenyl)-4-(4-fluorophenyl)-3-isobutyl-4,5-dihydropyrrolo[3,4-c]pyrazol-6(1H)-one]	–	15.8	39.8	–	–
1.6	–	41	97.5	8.1	–	135 (≈ 51 µg/mL)	C=CCCc1n[nH]c2c1C(c1ccc(F)cc1)N(c1ccc(OC)cc1)C2=O (stereo not drawn) [Compound 12]	–	3.2	50.1	–	–
25.1	≥ 450	57	92.1	7.3	–	–	COC1CCC(N2C(=O)c3[nH]nc(CC(C)C)c3C2c2ccc(F)cc2)CC1 (stereo not drawn) [Compound 36]	–	> 50	> 100	–	–
12.6	119 (≈ 42.1 µg/mL)	59	96.3	8.1	–	–	COc1ccc(N2C(=O)c3[nH]nc(CC(C)C)c3C2C2CCCC2)cc1 (stereo not drawn) [Compound 53]	–	20	> 100	–	–
7.9	10 (≈ 4.4 µg/mL)	37	97	9.1	–	–	COc1ccc(N2C(=O)c3[nH]nc(CC(C)C)c3C2c2cccc(Br)c2)cc1 (stereo not drawn) [Compound 60]	–	25.1	39.8	–	–
20	240 (≈ 91.1 µg/mL)	59	97.5	8.5	–	–	COc1ccccc1N1C(=O)c2[nH]nc(CC(C)C)c2C1c1ccc(F)cc1 (stereo not drawn) [Compound 29]	–	> 50	79.4	–	–
4	–	< 1	97.4	9.7	9 (≈ 3.4 µg/mL)	–	CCc1ccc(N2C(=O)c3[nH]nc(CC(C)C)c3C2c2ccc(F)cc2)cc1 (stereo not drawn) [Compound 22]	–	20	50.1	–	–
4	63 (≈ 24.7 µg/mL)	29	95	8.4	–	–	COc1ccc(N2C(=O)c3[nH]nc(CC(C)C)c3C2c2cccc(OC)c2)cc1 (stereo not drawn) [Compound 61]	–	20	63.1	–	–
6.3	20 (≈ 8.59 µg/mL)	22	97.8	8.9	–	–	COc1ccc(N2C(=O)c3[nH]nc(CC(C)C)c3C2c2cccc(C(F)(F)F)c2)cc1 (stereo not drawn) [Compound 62]	–	15.8	50.1	–	–
5	–	28.5	95.6	7.1	≥ 430	–	CC(C)Cc1n[nH]c2c1C(c1ccc(F)cc1)N(c1ccc(O)cc1)C2=O (stereo not drawn) [Compound 18]	–	39.8	> 100	–	–
6.3	149 (≈ 54.8 µg/mL)	47	95.4	8.3	–	–	COc1ccc(N2C(=O)c3[nH]nc(CC(C)C)c3C2c2ccsc2)cc1 (stereo not drawn) [Compound S3]	6.3	> 50	> 100	4	–
7.9	29 (≈ 10.7 µg/mL)	33	97.6	8.5	–	–	COc1ccc(N2C(=O)c3[nH]nc(CC(C)C)c3C2C2CCCCC2)cc1 (stereo not drawn) [Compound 52]	–	25.1	50.1	–	–
5	–	13	97.8	10.6	–	17 (≈ 7.47 µg/mL)	COc1ccc(N2C(=O)c3[nH]nc(-c4ccc5c(c4)CCC5)c3C2c2ccc(F)cc2)cc1 (stereo not drawn) [Compound 16]	–	7.9	25.1	–	–

Compound	EC50 [1] [µM]	solubility [5, 9] [µM]	Papp at 3 h [6] [×10⁻⁶ cm/s]	HSA Binding [7] [%]	PFI [8]	solubility [5, 10] [µM]	solubility [5] [µM]	IC50 [1] [µM]	EC50 [2] [µM]	EC50 [3] [µM]	IC50 [4] [µM]	solubility ([5]; aqueous medium) [µM]
COc1ccc(N2C(=O)c3[nH]nc(CC(C)C)c3C2c2ccc(F)cn2)cc1 (stereo not drawn) [Compound S10]	10	≥ 343	49	90.2	7.7	–	–	10	> 50	> 100	3.4	–
COc1ccc(N2C(=O)c3[nH]nc(CC(C)C)c3C2c2ccccc2Cl)cc1 (stereo not drawn) [Compound 55, 4-(2-chlorophenyl)-3-isobutyl-5-(4-methoxyphenyl)-4,5-dihydropyrrolo[3,4-c]pyrazol-6(1H)-one]	1.3	30 (≈ 11.9 µg/mL)	33	97.8	8.8	–	–	1.3	20	31.6	0.2	–
COc1ccc(N2C(=O)c3[nH]nc(CC(C)C)c3C2c2ccc(F)cc2)cc1F (stereo not drawn) [Compound 42, 5-(3-fluoro-4-methoxyphenyl)-4-(4-fluorophenyl)-3-isobutyl-4,5-dihydropyrrolo[3,4-c]pyrazol-6(2H)-one]	1.3	–	29	96.9	8.6	–	–	1.3	25.1	50.1	0.6	39 (≈ 15.5 µg/mL)
CC(C)Cc1n[nH]c2c1C(c1ccc(F)cc1)N(c1ccc3c(c1)OCO3)C2=O (stereo not drawn) [Compound 44, 5-(benzo[d][1,3]dioxol-5-yl)-4-(4-fluorophenyl)-3-isobutyl-4,5-dihydropyrrolo[3,4-c]pyrazol-6(1H)-one]	0.6	–	39	96.2	8.4	–	–	0.6	25.1	63.1	0.3	63 (≈ 24.8 µg/mL)

From patent US20230381142A1, “ANTILEISHMANIAL COMPOUNDS, COMPOSITIONS AND USE THEREOF” (TRUSTEES OF BOSTON UNIVERSITY, priority 2022, published 2023)
